From the supplement of paper PMC10307832

Legend:
Test in all cases: relative viability (nuclei count vs DMSO), 5 days (fraction); higher = more cells survive
[1] = test system: A-427
Method in brief: (§1)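 Lung cancer cell lines were seeded in 1536-well plates and dosed by pin tool the next day, with either a single drug or a fixed anchor-drug dose combined with five library-drug doses (not always all listed) spaced in √10 steps. Five days later, one step fixed the cells and stained their nuclei (final 0.05% Triton X-100, 1% formaldehyde, 1 ug/ml Hoechst), and nuclei were counted on 4× images. Relative viability is the nuclei count in treated wells divided by the count in vehicle wells, and each value is the median of duplicate plates.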

[2] = test system: EKVX
Method in brief: as §1

[3] = test system: H3255
Method in brief: as §1

[4] = test system: LK-2
Method in brief: as §1

[5] = test system: NCI-H1355
Method in brief: as §1

[6] = test system: NCI-H1666
Method in brief: as §1

[7] = test system: NCI-H1755
Method in brief: as §1

[8] = test system: NCI-H1944
Method in brief: as §1

[9] = test system: NCI-H2085
Method in brief: as §1

[10] = test system: NCI-H2228
Method in brief: as §1

[11] = test system: NCI-H2347
Method in brief: as §1

[12] = test system: NCI-H3122
Method in brief: as §1

[13] = test system: NCI-H322M
Method in brief: as §1

[14] = test system: NCI-H358
Method in brief: as §1

[15] = test system: NCI-H441
Method in brief: as §1

[16] = test system: NCI-H460
Method in brief: as §1

[17] = test system: NCI-H520
Method in brief: as §1

[18] = test system: NCI-H596
Method in brief: as §1

[19] = test system: NCI-H650
Method in brief: as §1

[20] = test system: NCI-H838
Method in brief: as §1

[21] = test system: SW 1573
Method in brief: as §1

O=c1[nH]c2ccccc2n1C1CCN(CCCC(c2ccc(F)cc2)c2ccc(F)cc2)CC1 [Pimozide] + Cc1nc(NC(=O)N2CCC[C@H]2C(N)=O)sc1-c1ccnc(C(C)(C)C(F)(F)F)c1 [Alpelisib] (partner 2 µM)
relative viability ([1]; first compound 0.08 µM): 1.08
relative viability ([1]; first compound 0.253 µM): 1.05
relative viability ([1]; first compound 0.8 µM): 1.14
relative viability ([1]; first compound 2.53 µM): 0.987
relative viability ([1]; first compound 8 µM): 1.01
relative viability ([2]; first compound 0.253 µM): 0.806
relative viability ([2]; first compound 0.8 µM): 0.934
relative viability ([2]; first compound 2.53 µM): 0.853
relative viability ([2]; first compound 8 µM): 0.856
relative viability ([3]; first compound 0.253 µM): 0.569
relative viability ([3]; first compound 0.8 µM): 0.599
relative viability ([3]; first compound 2.53 µM): 0.754
relative viability ([3]; first compound 8 µM): 0.711
relative viability ([4]; first compound 0.08 µM): 1.12
relative viability ([4]; first compound 0.253 µM): 1.05
relative viability ([4]; first compound 0.8 µM): 1.01
relative viability ([4]; first compound 2.53 µM): 1.01
relative viability ([4]; first compound 8 µM): 0.779
relative viability ([5]; first compound 0.08 µM): 0.81
relative viability ([5]; first compound 0.253 µM): 0.873
relative viability ([5]; first compound 0.8 µM): 0.811
relative viability ([5]; first compound 2.53 µM): 0.662
relative viability ([5]; first compound 8 µM): 0.817
relative viability ([6]; first compound 0.08 µM): 0.948
relative viability ([6]; first compound 0.253 µM): 1.01
relative viability ([6]; first compound 0.8 µM): 0.886
relative viability ([6]; first compound 2.53 µM): 0.874
relative viability ([6]; first compound 8 µM): 0.728
relative viability ([7]; first compound 0.08 µM): 0.918
relative viability ([7]; first compound 0.253 µM): 0.885
relative viability ([7]; first compound 0.8 µM): 0.87
relative viability ([7]; first compound 2.53 µM): 0.786
relative viability ([7]; first compound 8 µM): 0.727
relative viability ([8]; first compound 0.08 µM): 0.654
relative viability ([8]; first compound 0.253 µM): 0.817
relative viability ([8]; first compound 0.8 µM): 0.815
relative viability ([8]; first compound 2.53 µM): 0.824
relative viability ([8]; first compound 8 µM): 0.81
relative viability ([9]; first compound 0.08 µM): 0.928
relative viability ([9]; first compound 0.253 µM): 0.962
relative viability ([9]; first compound 0.8 µM): 0.875
relative viability ([9]; first compound 2.53 µM): 0.981
relative viability ([9]; first compound 8 µM): 0.864
relative viability ([10]; first compound 0.08 µM): 0.623
relative viability ([10]; first compound 0.253 µM): 0.755
relative viability ([10]; first compound 0.8 µM): 0.735
relative viability ([10]; first compound 2.53 µM): 0.737
relative viability ([10]; first compound 8 µM): 0.482
relative viability ([11]; first compound 0.08 µM): 1.11
relative viability ([11]; first compound 0.253 µM): 0.966
relative viability ([11]; first compound 0.8 µM): 0.914
relative viability ([11]; first compound 2.53 µM): 1.01
relative viability ([11]; first compound 8 µM): 0.966
relative viability ([12]; first compound 0.08 µM): 0.833
relative viability ([12]; first compound 0.253 µM): 0.784
relative viability ([12]; first compound 0.8 µM): 0.784
relative viability ([12]; first compound 2.53 µM): 0.784
relative viability ([12]; first compound 8 µM): 0.795
relative viability ([13]; first compound 0.253 µM): 0.835
relative viability ([13]; first compound 0.8 µM): 0.819
relative viability ([13]; first compound 2.53 µM): 0.695
relative viability ([13]; first compound 8 µM): 0.716
relative viability ([14]; first compound 0.08 µM): 0.761
relative viability ([14]; first compound 0.253 µM): 0.775
relative viability ([14]; first compound 0.8 µM): 0.786
relative viability ([14]; first compound 2.53 µM): 0.808
relative viability ([14]; first compound 8 µM): 0.852
relative viability ([15]; first compound 0.08 µM): 1.05
relative viability ([15]; first compound 0.253 µM): 0.733
relative viability ([15]; first compound 0.8 µM): 0.854
relative viability ([15]; first compound 2.53 µM): 0.574
relative viability ([15]; first compound 8 µM): 0.442
relative viability ([16]; first compound 0.08 µM): 0.476
relative viability ([16]; first compound 0.253 µM): 0.428
relative viability ([16]; first compound 0.8 µM): 0.472
relative viability ([16]; first compound 2.53 µM): 0.487
relative viability ([16]; first compound 8 µM): 0.493
relative viability ([17]; first compound 0.08 µM): 1.03
relative viability ([17]; first compound 0.253 µM): 0.88
relative viability ([17]; first compound 0.8 µM): 0.992
relative viability ([17]; first compound 2.53 µM): 0.947
relative viability ([17]; first compound 8 µM): 0.832
relative viability ([18]; first compound 0.08 µM): 0.481
relative viability ([18]; first compound 0.253 µM): 0.476
relative viability ([18]; first compound 0.8 µM): 0.374
relative viability ([18]; first compound 2.53 µM): 0.481
relative viability ([18]; first compound 8 µM): 0.392
relative viability ([19]; first compound 0.08 µM): 1.04
relative viability ([19]; first compound 0.253 µM): 1.05
relative viability ([19]; first compound 0.8 µM): 1.09
relative viability ([19]; first compound 2.53 µM): 1.07
relative viability ([19]; first compound 8 µM): 1.02
relative viability ([20]; first compound 0.08 µM): 0.95
relative viability ([20]; first compound 0.253 µM): 0.98
relative viability ([20]; first compound 0.8 µM): 0.967
relative viability ([20]; first compound 2.53 µM): 1.03
relative viability ([20]; first compound 8 µM): 1.04
relative viability ([21]; first compound 0.08 µM): 0.795
relative viability ([21]; first compound 0.253 µM): 0.788
relative viability ([21]; first compound 0.8 µM): 0.764
relative viability ([21]; first compound 2.53 µM): 0.91
relative viability ([21]; first compound 8 µM): 0.743
